Assay results from US9604974B2, “Compounds as modulator of JAK-STAT pathway, methods and applications thereof” (UNIVERSITY OF MYSORE, priority 2015, dated 2017).

How the values were obtained:
[1] = tested on: HepG2 cells; test: Cell cycle distribution by PI flow cytometry (sub-G1); format: cell-based, human; details: HepG2, 10 μMol/L CIMO
Method: FIG. 1 depicts the accumulation of HepG2 cells in SubG1 phase caused by Compound 1 (CIMO). HepG2 cells (5×10^5/mL) are treated with 10 μMol/L CIMO for indicated time points, after which the cells are washed, fixed, stained with PI, and analyzed for DNA content by flow cytometry.
In late apoptosis, activation of endonucleases leads to fragmentation of genomic DNA into oligomers thereby contributing to a decrease in DNA content, which in turn leads to the buildup of cells in Sub-G1 phase. In order to evaluate the effect of Compound 1 on cell cycle distribution of HepG2 cells, flow cytometric analysis is performed. HepG2 cells are treated with CIMO at different time intervals up to 48 hours. Thereafter, cells are washed, fixed with 70% ethanol, and incubated for about 30 minutes about at 37° C. with 0.1% RNaseA in PBS. Cells are then washed again, resuspended, and stained in PBS containing 25 μg/ml propidium iodide (PI) for about 30 minutes at room temperature. Cell distribution across the cell cycle after PI staining is analyzed with a Beckman Coulter flow cytometer.

[2] = tested on: phospho-STAT3, Ki-67, cleaved caspase-3; test: Immunohistochemistry of tumor tissues; format: in vivo, athymic nu/nu female mice; details: treated vs. control group
Method: The effect of CIMO on constitutive phospho-STAT3 levels in HCC tumor tissues is further analyzed by immunohistochemical analysis. Solid tumors from control and drug-treated groups are fixed with 10% phosphate buffered formalin, processed, and embedded in paraffin. The sections are cut to 5 micron size and deparafinized in xylene, dehydrated in graded alcohol, and finally hydrated in water. Antigen retrieval is conducted by boiling the slide in 10 mM sodium citrate (pH 6.0) for about 30 minutes. Immunohistochemistry is conducted following the manufacturer's instructions (Dako LSAB Kit). Briefly, endogenous peroxidases are quenched with 3% hydrogen peroxide. Sections are incubated with primary antibodies for about 2 hours as follows: anti-pSTAT3, anti-Ki-67 and anti-caspase-3 (each at 1:100 dilutions). The slides are subsequently washed several times in TBS with 0.1% Tween-20 and are incubated with biotinylated linker for about 45 minutes, provided in the LSAB Kit according to the manufacturer's instructions. Immunoreactive species are detected using 3, 3′-diaminobenzidine tetrahydrochloride as a substrate. The sections are counterstained with Gill's hematoxylin and mounted under glass cover slips. Images are taken using an Olympus BX51 microscope (magnification, 40×). Quantitative analysis of immunohistochemistry images are done by visual scores between the control and treated images. In this expression quantitation technique, each image is divided into four parts and each part is individually quantitated for the biomarker expression. A cell scored as positive refers to the presence of brown staining (peroxidase) in any part of the studied tissue. A negative cell scored refers to no staining or weak staining.

[3] = tested on: HepG2 cells; test: Matrigel invasion assay; format: cell-based, human; details: 5 μMol/L CIMO, presence and absence of CXCL12
Method: FIG. 5 depicts inhibition of cell migration by Compound 1 (CIMO) [A]. 70 μl HepG2 cells (5×10^5/mL) are seeded into each compartments of culture insert and insert is removed after about 12 hours. Width of the wound is measured initially and incubation is carried out with and without CIMO (5 μM, for about 8 hours) and CXCL12 (100 ng/mL, for about 24 hours). [B] Inhibition of cell invasion by Compound 1 (CIMO). HepG2 (2×10^5) cells are seeded in the top chamber of BD BioCoat™ Matrigel™. After pre-incubation with or without 5 μMol/L CIMO for about 8 hours, transwell chambers are placed into the wells of a 24-well plate which contains either only basal medium or basal medium with CXCL12 (100 ng/mL) for about 24 hours. After incubation, the chambers are assessed for cell invasion by staining with crystal violet.
In case of the invasion assay, the said assay is performed wherein BD (Biocoat™ Matrigel™) Invasion chamber with 8 μm pores in the light-tight polyethylene terephthalate membrane is taken and is coated with a reconstituted basement membrane gel (BD Biosciences). 2×10^5 cells are suspended in serum-free DMEM and seeded into the Matrigel Transwell chambers. The cells are incubated with CIMO for about 8 hours. […] The invading cells are then counted in five randomly selected areas under microscopic observation.

[4] = tested on: AGS (gastric cancer cell line); test: MTT anti-proliferative assay, AGS; format: cell-based; details: Homo sapiens
Method: (§1) The anti-proliferative activity of Formula I compounds are studied on HepG2 cells using MTT assay. Briefly, the cells (2.5×10^4/ml) are incubated in triplicate in a 96-well plate in the presence or absence of different concentrations of compounds in a final volume of 0.2 ml up to 72 hours at 37° C. Thereafter, 20 μl MTT solution (5 mg/ml in PBS) is added to each well. After 2 hours of incubation at 37° C., 0.1 ml lysis buffer (20% SDS, 50% dimethyl-formamide) is added; incubation is continued overnight at 37° C.; and the optical density (OD) at 570 nm is measured by Tecan plate reader.
(§2) Additionally, Compound 1 is tested on a panel of six cell lines including Hep3B, PLC/PRF5, AGS (gastric cancer cell line), DU145 (prostrate cancer cell line), MDA MB231 (breast cancer cell line) and CAL27 (head and neck cancer cell line) cells.

[5] = tested on: Hep3B; test: MTT anti-proliferative assay, Hep3B; format: cell-based; details: Homo sapiens
Method: as §1, §2

[6] = tested on: HepG2 cells; test: MTT anti-proliferative assay, HepG2; format: cell-based; details: Homo sapiens
Method: as §1

[7] = tested on: STAT3; test: Immunocytochemistry of STAT3 nuclear translocation; format: cell-based, human; details: HepG2, 10 μMol/L, about 6 hours
Method: HepG2 cells are plated in chamber slides in DMEM containing 10% FBS and allowed to adhere for about 24 hours. Following treatment with CIMO for about 6 hours, the cells are fixed with cold acetone for about 10 minutes, washed with PBS and blocked with 5% normal goat serum for about 1 hour. The cells are then incubated with rabbit polyclonal anti-human STAT3 Antibody (dilution, 1/100). After overnight incubation, the cells are washed and then incubated with goat anti-rabbit IgG-Alexa 594 ( 1/100) for about 1 hour and counterstained for nuclei with Hoechst (50 ng/ml) for about 5 minutes. Stained cells are mounted with mounting medium (Sigma-Aldrich) and analyzed under a fluorescence microscope (DP 70, Olympus, Tokyo, Japan).

IC50 [4]: 36.9 µM
IC50 [5]: 46.9 µM
IC50 ([6]; HepG2, Table 2): 7.3 µM
IC50 ([6]; HepG2 cells after 72 hours, MTT): 7.3 µM
SMILES: COc1ccc(C2CNC(c3cn(Cc4ccc(-c5ccccc5C#N)cc4)c4ccccc34)OC23CCCCC3)cc1 (stereo not shown) [Compound 1]
sub-G1 cell population ([1]; 16 hours): 18.8%
sub-G1 cell population ([1]; 24 hours): 38.7%
sub-G1 cell population ([1]; 36 hours): 71%
sub-G1 cell population ([1]; 48 hours): 92.1%
constitutive STAT3 activation in tumor tissues [2]: significantly inhibits
expression of Ki-67 in tumor tissues [2]: downregulated
expression of cleaved caspase-3 in tumor tissues [2]: significantly increased
inhibition of HepG2 cells motility (invasion) [3]: more than 50%
STAT3 in the nucleus [7]: significant decrease
